We go through 1 compound from PMC5650530 (ACS chemical biology, 2017).

One test addresses T1, BAIAP2 (Homo sapiens, UniProt Q9UQB8).
T1 sequence (Q9UQB8 1-552): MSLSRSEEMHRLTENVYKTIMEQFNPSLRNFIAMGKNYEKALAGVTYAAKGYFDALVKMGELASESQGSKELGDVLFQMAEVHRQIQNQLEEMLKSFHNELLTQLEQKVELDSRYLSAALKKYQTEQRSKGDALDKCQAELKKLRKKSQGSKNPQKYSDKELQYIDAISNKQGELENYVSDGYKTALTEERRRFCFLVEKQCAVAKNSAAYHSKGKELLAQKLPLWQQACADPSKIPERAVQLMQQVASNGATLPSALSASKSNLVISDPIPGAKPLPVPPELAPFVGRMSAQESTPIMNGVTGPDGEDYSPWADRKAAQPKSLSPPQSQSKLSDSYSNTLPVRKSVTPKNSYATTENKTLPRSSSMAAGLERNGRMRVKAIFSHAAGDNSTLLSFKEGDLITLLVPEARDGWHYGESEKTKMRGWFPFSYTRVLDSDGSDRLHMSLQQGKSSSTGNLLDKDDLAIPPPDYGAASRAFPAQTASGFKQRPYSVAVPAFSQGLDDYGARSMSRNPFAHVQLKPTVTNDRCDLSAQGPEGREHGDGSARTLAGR
As to the kind of experiment: LiPIP. It is filed as binding. To be noted: KDT501 25 and 50 μM; A-DA or AEA-DA probe 10 μM; HEK293T cells.

For test [1], the target named is T2, PTGR2 (Homo sapiens, UniProt Q8N8N7). As to the kind of experiment: 15-keto PGE2 substrate assay with recombinant PTGR2 protein. The settings on record: read-out: IC50, inhibition of dhk-PGE2 production, 15-keto PGE2 and NADPH, 95% CI 4.4–16 μM. It is filed as biochemical.
Target sequence in this assay (Q8N8N7 whole entry): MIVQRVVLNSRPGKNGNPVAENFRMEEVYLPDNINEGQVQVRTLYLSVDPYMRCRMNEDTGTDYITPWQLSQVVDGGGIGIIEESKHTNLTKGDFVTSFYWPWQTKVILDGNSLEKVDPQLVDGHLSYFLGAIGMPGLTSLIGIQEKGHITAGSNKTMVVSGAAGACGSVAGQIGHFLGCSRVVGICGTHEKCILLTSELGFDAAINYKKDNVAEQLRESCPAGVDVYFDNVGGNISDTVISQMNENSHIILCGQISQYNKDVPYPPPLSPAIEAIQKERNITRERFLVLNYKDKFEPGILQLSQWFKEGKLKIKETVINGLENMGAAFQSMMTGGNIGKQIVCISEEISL
For test [2], the target named is T2, PTGR2. It is filed as binding. To be noted: read-out: IC50, blockade of A-DA probe labeling of recombinant PTGR2; transfected cell lysates; A-DA 5 μM; 95% CI 3.0–5.3 μM.
Target sequence in this assay (Q8N8N7 whole entry, species assumed): as the sequence (Q8N8N7 whole entry) above
The test system of another test is PPAR-γ. The settings on record: cited from earlier work.
Test [3] concerns the target T2, PTGR2. As to the kind of experiment: 15-keto PGE2 reductase activity of PTGR2-transfected HEK293T cell lysates. It is filed as biochemical. To be noted: read-out: IC50, inhibition of 15-keto PGE2 reductase activity; lysates from HEK293T cells transfected with PTGR2; 95% CI 1.4–2.4 μM.
Target sequence in this assay (Q8N8N7 whole entry, species assumed): as the sequence (Q8N8N7 whole entry) above
In test [4] the target is T2, PTGR2. As to the kind of experiment: LiPIP. It is filed as binding. To be noted: KDT501 25 and 50 μM; A-DA or AEA-DA probe 10 μM; HEK293T cells.
Target sequence in this assay (Q8N8N7 whole entry): as above
The conditions of test [5]: reference not given; cited from earlier work.

Like-named read-outs stand apart in the source and are kept apart here.

For `CC(C)CCC(=O)[C@]1(O)C(=O)[C-](C(=O)CC(C)C)C(=O)[C@H]1CCC(C)C.[K+]` (stereo partly shown) [KDT501], on BAIAP2, the “blockade of lipid probe enrichment of BAIAP2” value was “substantive blockade of enrichment”. In addition, the IC50 was 8.4 µM on PTGR2 [1], 4 µM at PTGR2 [2] and 1.8 µM on PTGR2 [3]. Besides, in the test with PPAR-γ, the “agonism of PPAR-γ” value is recorded as “weak agonist”. Further, the “blockade of lipid probe enrichment of PTGR2” value at PTGR2 [4] was “substantive blockade of enrichment”. In addition, in test [5], the “moderately potent activity in cells (concentration)” value was 10 to 50 µM.
